Measurements published in the supplement of paper PMC11061612.

Tests used:
Experiment in all cases: combination Emax (second highest fraction inhibited in the dose matrix, 72 h); higher = more inhibition; extreme values may be limits of the assay
[1] = test system: KATOIII (Gastric Carcinoma)
Outline: (§1)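 Cell lines in DMEM/F12 or RPMI with 10% FBS were plated in 1536-well plates, held 24 hours at 37°C, 5% CO2, then given two-drug dose matrices for 72 hours (DMSO typically 0.2%). Viability was read by CellTiter-Glo 2.0 luminescence and scaled as inhibition from 0 (vehicle wells) to 1 (blank wells). Combination Emax is the second-highest inhibition in the matrix; Bliss excess is observed combination effect minus expected EA + EB − EA·EB, EA and EB being single-agent effects.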

[2] = test system: G-292-Clone-A141B1 (Osteosarcoma)
Outline: as §1

[3] = test system: HT-29 (Colorectal Carcinoma)
Outline: as §1

CAL-78 (Chondrosarcoma) = test system: CAL-78 (Chondrosarcoma)
Outline: as §1

[4] = test system: SW756 (Cervical Carcinoma)
Outline: as §1

[5] = test system: NCI-H1793 (Lung Adenocarcinoma)
Outline: as §1

[6] = test system: SW1783 (Low Grade Glioma)
Outline: as §1

[7] = test system: KM-H2 (Hodgkin's Lymphoma)
Outline: as §1

IGR-1 (Melanoma) = test system: IGR-1 (Melanoma)
Outline: as §1

[8] = test system: CTV-1 (T-Lymphoblastic Leukemia)
Outline: as §1

[9] = test system: COR-L95 (Small Cell Lung Carcinoma)
Outline: as §1

[10] = test system: DB (B-Cell Non-Hodgkin's Lymphoma)
Outline: as §1

[11] = test system: DOV13 (Ovarian Carcinoma)
Outline: as §1

[12] = test system: LS-513 (Colorectal Carcinoma)
Outline: as §1

NCI-H2369 (Mesothelioma) = test system: NCI-H2369 (Mesothelioma)
Outline: as §1

[13] = test system: HPAC (Pancreatic Carcinoma)
Outline: as §1

[14] = test system: SNU-C5 (Colorectal Carcinoma)
Outline: as §1

[15] = test system: MDA-MB-157 (Breast Carcinoma)
Outline: as §1

[16] = test system: SW780 (Bladder Carcinoma)
Outline: as §1

NCI-H2595 (Mesothelioma) = test system: NCI-H2595 (Mesothelioma)
Outline: as §1

| combination Emax [7] | SMILES | combination Emax [1] | combination Emax [2] | combination Emax [3] | combination Emax (CAL-78 (Chondrosarcoma)) | combination Emax [4] | combination Emax [5] | combination Emax [6] | combination Emax (IGR-1 (Melanoma)) | combination Emax [8] | combination Emax [9] | combination Emax [10] | combination Emax [11] | combination Emax [12] | combination Emax (NCI-H2369 (Mesothelioma)) | combination Emax [13] | combination Emax [14] | combination Emax [15] | combination Emax [16] | combination Emax (NCI-H2595 (Mesothelioma)) |
| --- | --- | --- | --- | --- | --- | --- | --- | --- | --- | --- | --- | --- | --- | --- | --- | --- | --- | --- | --- | --- |
| 0.791 | COc1cccc2c1C(=O)c1c(O)c3c(c(O)c1C2=O)C[C@@](O)(C(=O)CO)C[C@@H]3O[C@H]1C[C@H](N)[C@H](O)[C@H](C)O1 [Doxorubicin] + Cc1cc2ncnn2cc1Nc1ncc2c(n1)n(C1CCOCC1)c(=O)n2C [AZD7648] (first compound max 1 µM, 7x7, partner max 10 µM) | 0.319 | 0.247 | 0.657 | 0.542 | 0.514 | 0.378 | 0.481 | 0.697 | 1 | 0.865 | 0.896 | 0.914 | 0.617 | 0.883 | 0.633 | 0.724 | 0.805 | 0.235 | 0.531 |
| 0.299 | COc1nnc2ccc(N3CCC(c4ccc(OCCN5CCN(C)C(=O)[C@H]5C)cc4)CC3)nn12 [AZD5153] + Cn1cnc2c(F)c(Nc3ccc(Br)cc3Cl)c(C(=O)NOCCO)cc21 [Selumetinib] (first compound max 1 µM, 7x7, partner max 10 µM) | 0.424 | 0.317 | 0.848 | 0.391 | 0.534 | 0.373 | 0.246 | 0.938 | 0.99 | 0.218 | 0.761 | 0.482 | 0.951 | 0.368 | 0.82 | 0.619 | 0.546 | 0.537 | 0.364 |
| 0.953 | CN(C)CCCOc1ccc(-c2ccc3ncc4c(c3c2)n(C2CCOCC2)c(=O)n4C)cn1 [AZD0156] + C=CCn1c(=O)c2cnc(Nc3ccc(N4CCN(C)CC4)cc3)nc2n1-c1cccc(C(C)(C)O)n1 [AZD1775] (first compound max 1 µM, partner max 1 µM) | 0.213 | 0.197 | 0.83 | 0.428 | 0.379 | 0.387 | 0.179 | 0.223 | 0.962 | 0.623 | 0.891 | 0.814 | 0.827 | 0.207 | 0.67 | 0.583 | 0.673 | 0.124 | 0.12 |
| 0.933 | Cc1cc2ncnn2cc1Nc1ncc2c(n1)n(C1CCOCC1)c(=O)n2C [AZD7648] + C=CCn1c(=O)c2cnc(Nc3ccc(N4CCN(C)CC4)cc3)nc2n1-c1cccc(C(C)(C)O)n1 [AZD1775] (first compound max 10 µM, partner max 1 µM) | 0.391 | 0.295 | 0.816 | 0.458 | 0.442 | 0.416 | 0.322 | 0.25 | 0.97 | 0.583 | 0.786 | 0.839 | 0.776 | 0.314 | 0.748 | 0.609 | 0.649 | 0.233 | 0.244 |
| 0.962 | COc1cccc(OCCCN)c1-c1cc(Nc2cnc(C#N)cn2)n[nH]1 [Prexasertib] + C=CCn1c(=O)c2cnc(Nc3ccc(N4CCN(C)CC4)cc3)nc2n1-c1cccc(C(C)(C)O)n1 [AZD1775] (first compound max 1 µM, partner max 1 µM) | 0.55 | 0.32 | 0.844 | 0.643 | 0.445 | 0.532 | 0.549 | 0.708 | 1 | 0.736 | 0.945 | 0.971 | 0.949 | 0.296 | 0.792 | 0.886 | 0.969 | 0.303 | 0.307 |
| 0.938 | CCN(CCO)CCCOc1ccc2c(Nc3cc(CC(=O)Nc4cccc(F)c4)[nH]n3)ncnc2c1 [AZD2811] + C=CCn1c(=O)c2cnc(Nc3ccc(N4CCN(C)CC4)cc3)nc2n1-c1cccc(C(C)(C)O)n1 [AZD1775] (first compound max 1 µM, partner max 1 µM) | 0.221 | 0.152 | 0.82 | 0.51 | 0.407 | 0.359 | 0.193 | 0.314 | 0.969 | 0.655 | 0.867 | 0.823 | 0.703 | 0.151 | 0.643 | 0.59 | 0.729 | 0.186 | 0.0802 |
| 0.296 | CN(CCO)CC[C@H](CSc1ccccc1)Nc1ccc(S(=O)(=O)NC(=O)c2ccc(N3CCC([C@@H](O)c4ccccc4-c4ccc(Cl)cc4)CC3)cc2)cc1S(=O)(=O)C(F)(F)F [AZD4320] + Cn1cnc2c(F)c(Nc3ccc(Br)cc3Cl)c(C(=O)NOCCO)cc21 [Selumetinib] (first compound max 1 µM, 7x7, partner max 3 µM) | 0.29 | 0.564 | 0.695 | 0.557 | 0.47 | 0.248 | 0.706 | 0.986 | 0.706 | 1 | 0.953 | 0.747 | 0.941 | 0.435 | 0.865 | 0.656 | 0.366 | 0.78 | 0.275 |

Second part, the compound before the results:

| SMILES | combination Emax [7] | combination Emax [1] | combination Emax [2] | combination Emax [3] | combination Emax (CAL-78 (Chondrosarcoma)) | combination Emax [4] | combination Emax [5] | combination Emax [6] | combination Emax (IGR-1 (Melanoma)) | combination Emax [8] | combination Emax [9] | combination Emax [10] | combination Emax [11] | combination Emax [12] | combination Emax (NCI-H2369 (Mesothelioma)) | combination Emax [13] | combination Emax [14] | combination Emax [15] | combination Emax [16] | combination Emax (NCI-H2595 (Mesothelioma)) |
| --- | --- | --- | --- | --- | --- | --- | --- | --- | --- | --- | --- | --- | --- | --- | --- | --- | --- | --- | --- | --- |
| Cc1c2c(nn1C)CSCc1cc(n(C)n1)CSc1cc(c3ccccc3c1)OCCCc1c(C(=O)O)n(C)c3c-2c(Cl)ccc13 [AZD5991] + CC1(C)CCC(CN2CCN(c3ccc(C(=O)NS(=O)(=O)c4ccc(NCC5CCOCC5)c([N+](=O)[O-])c4)c(Oc4cnc5[nH]ccc5c4)c3)CC2)=C(c2ccc(Cl)cc2)C1 [Venetoclax] (first compound max 1 µM, 7x7, partner max 1 µM) | 0.312 | 0.101 | 0.184 | 0.189 | 0.796 | 0.185 | 0.174 | 0.444 | 0.969 | 0.13 | 0.914 | 1 | 0.221 | 0.18 | 0.147 | 0.244 | 0.204 | 0.862 | 0.386 | 0.267 |
| CCc1c2c(nc3ccc(O)cc13)-c1cc3c(c(=O)n1C2)COC(=O)[C@]3(O)CC [SN-38] + CN(C)CCCOc1ccc(-c2ccc3ncc4c(c3c2)n(C2CCOCC2)c(=O)n4C)cn1 [AZD0156] (first compound max 0.3 µM, 7x7, partner max 1 µM) | 0.907 | 0.16 | 0.213 | 0.89 | 0.587 | 0.79 | 0.505 | 0.748 | 0.497 | 1 | 0.789 | 0.97 | 0.936 | 0.526 | 0.32 | 0.38 | 0.757 | 0.742 | 0.33 | 0.176 |
| CC1(C)CCC(CN2CCN(c3ccc(C(=O)NS(=O)(=O)c4ccc(NCC5CCOCC5)c([N+](=O)[O-])c4)c(Oc4cnc5[nH]ccc5c4)c3)CC2)=C(c2ccc(Cl)cc2)C1 [Venetoclax] + Cn1cnc2c(F)c(Nc3ccc(Br)cc3Cl)c(C(=O)NOCCO)cc21 [Selumetinib] (first compound max 1 µM, 7x7, partner max 3 µM) | 0.097 | 0.186 | 0.146 | 0.64 | 0.146 | 0.225 | 0.199 | 0.124 | 0.301 | 0.293 | 0.572 | 0.914 | 0.157 | 0.717 | 0.119 | 0.559 | 0.289 | 0.546 | 0.227 | 0.129 |
| CC(=O)c1c(C)c2cnc(Nc3ccc(N4CCNCC4)cn3)nc2n(C2CCCC2)c1=O [Palbociclib] + Cn1cnc2c(F)c(Nc3ccc(Br)cc3Cl)c(C(=O)NOCCO)cc21 [Selumetinib] (first compound max 10 µM, 7x7, partner max 10 µM) | 0.47 | 0.465 | 0.12 | 0.769 | 0.331 | 0.343 | 0.318 | 0.0922 | 0.919 | 0.905 | 0.283 | 0.785 | 0.467 | 0.876 | 0.144 | 0.735 | 0.463 | 0.147 | 0.356 | 0.155 |
| Cc1nc(Nc2ncc(C(=O)Nc3c(C)cccc3Cl)s2)cc(N2CCN(CCO)CC2)n1 [Dasatinib] + CC(=O)Nc1cccc(-n2c(=O)n(C3CC3)c(=O)c3c(Nc4ccc(I)cc4F)n(C)c(=O)c(C)c32)c1 [Trametinib] (first compound max 2 µM, 7x7, partner max 1 µM) | 0.234 | 0.629 | 0.722 | 0.981 | 0.474 | 0.691 | 0.567 | 0.43 | 0.351 | 1 | 0.128 | 0.28 | 0.814 | 0.998 | 0.277 | 0.893 | 0.571 | 0.234 | 0.625 | 0.265 |
| CN(C)CCCOc1ccc(-c2ccc3ncc4c(c3c2)n(C2CCOCC2)c(=O)n4C)cn1 [AZD0156] + O=C(c1cc(Cc2n[nH]c(=O)c3ccccc23)ccc1F)N1CCN(C(=O)C2CC2)CC1 [Olaparib] (first compound max 3 µM, partner max 3 µM) | 0.401 | 0.195 | 0.411 | 0.407 | 0.272 | 0.155 | 0.496 | 0.401 | 0.209 | 0.303 | 0.373 | 0.476 | 0.608 | 0.267 | 0.181 | 0.36 | 0.325 | 0.27 | 0.183 | 0.139 |
